From article PMC8040626, “A unique Malpighian tubule architecture in Tribolium castaneum informs the evolutionary origins of systemic osmoregulation in beetles” (Proceedings of the National Academy of Sciences of the …, 2021)
“Also recorded” adds a separate entry of the source.

Columns and labels:
[1] = system: Urn8R on the SC basal membrane; experiment: Ex vivo ligand-receptor binding assay, T. castaneum tubules; set-up: species or system Tribolium castaneum; conditions: T. castaneum MTs, labelled peptide 10^-7 M, confocal microscopy
Source text: To dissect the molecular mechanism underpinning Urn8-mediated control of tubule function, we immunolocalized Urn8R to the tubule epithelium of T. castaneum. […] The SC identity of this Urn8R-expressing cell type was verified by colocalization of the Tiptop transcription factor, which is known to control SC differentiation in other insects ([21]) (SI Appendix, Fig. S2A). The fact that the Urn8 pathway is confined exclusively to SCs in T. castaneum is in contrast to that of all other insects studied to date in which this hormonal circuit is diagnostic of PC activity, the majority cell type ([22]–[24]). […] Specificity of the antibody was verified by the lack of staining in MTs from Urn8R-silenced animals, and by the fact that the molecular weight of the protein corresponds to the predicted size of the receptor (Fig. 2 A and B). […]
(§1) Ligand-Receptor Binding Assay. […] Next, the tissues were set-up in a matched-pair protocol, in which one batch was incubated in the appropriate insect saline added the labelled neuropeptide analogue ([…]) and DAPI (1 µg ml-1), while the other was incubated in just DAPI; the latter batch was used to adjust baseline filter and exposure settings to minimize auto-fluorescence during image acquisition.
(§2) Images were subsequently recorded on a Zeiss LSM 800 confocal microscope using baseline filter and exposure settings. […]

[2] = system: basolateral membranes of SCs in MTs; experiment: Ex vivo ligand-receptor binding assay, T. molitor tubules; set-up: species or system Tenebrio molitor; conditions: labelled peptide 10^-7 M, confocal microscopy
Source text: Fig. 2. The Urn8 receptor localizes to a secondary cell type in MTs and is activated by its endogenous ligands DH37 and DH47. (A) Urn8R is expressed in a subpopulation of cells throughout the “free” part of the T. castaneum MT (small arrows); there are 53 ± 2 (n = 8) cells per tubule. […] (Scale bars, Left, 150 μm; Middle and Right, 30 μm.) (B) Western blot analysis of protein extracts from T. castaneum tubules showing that the anti-Urn8R antiserum recognizes a protein of a size of approximately 50 to 55 kDa, consistent with the predicted size of the receptor (51.6 kDa for the dominant -RA isoform, arrow). (C) Application of fluorophore-coupled receptor agonists DH37-F and DH47-F (10^−7 M) to T. castaneum and T. molitor MTs. […] Values are expressed as mean ± SEM. […]
as §1, §2

[3] = system: tubule basolateral membranes; experiment: Ex vivo ligand-receptor binding assay, all beetle species sampled; set-up: species or system all species sampled (beetles)
Source text: (§3) Collectively, our work points to a model in which beetle MT function operates via a two-cell–type model that is different from that of all other higher insects ([11]). To determine whether this epithelial organization is universal among beetles or, alternatively, a derived trait specific to the drought-resistant tenebrionid species, we adapted the ligand-receptor binding assay (as used in Fig. 2C) to systematically map MT tissue architecture across the beetle phylogeny. In our sampling strategy, we prioritized species representative of the larger beetle families while trying to select species inhabiting different types of ecological niches (dry, moist, or aquatic). […]
as §1, §2
(§4) Electrophysiological assays. […] In brief, the ion-selective microelectrode voltage was measured at a position close to the tissue (3–5 μm) and subsequently at a more distant position (app. 50 μm) from the tubule. […]

[4] = system: small-nucleated SC-type of MTs; experiment: Ex vivo ligand-receptor binding assay, polyphagan beetles; conditions: all polyphagan beetles
Source text: as §3, §1, §2, §4

larger PC-type of MTs = experiment: Ex vivo ligand-receptor binding assay, adephagan species
Source text: as §3, §1, §2, §4

| Binding of fluorophore-coupled ligand [3] | Substance | Binding of fluorophore-coupled ligand [1] | Binding of fluorophore-coupled ligand [2] | Binding of fluorophore-coupled ligand, cell type [4] | Binding of fluorophore-coupled ligand, cell type (larger PC-type of MTs) |
| --- | --- | --- | --- | --- | --- |
| specific and displaceable | TMR-C5-maleimide-AGALGESGASLSIVNSLDVLRNRLLLEIARKKAKEGANRNRQILLSLamide [DH47-F, fluorophore-coupled DH47 analog, TMR-C5-maleimide labelled] | bind to basolateral membranes of SCs; also recorded: Specific and displaceable binding to the SCs | bind to basolateral membranes of SCs; also recorded: Specific and displaceable binding to the SCs | localized entirely to a small-nucleated SC-type | confined to a larger PC-type |
| specific and displaceable | TMR-C5-maleimide-SPTISITAPIDVLRKTWAKENMRKQMQINREYLKNLQamide [DH37-F, fluorophore-coupled DH37 analog, TMR-C5-maleimide labelled] | bind to basolateral membranes of SCs; also recorded: Specific and displaceable binding to the SCs | bind to basolateral membranes of SCs; also recorded: Specific and displaceable binding to the SCs | localized entirely to a small-nucleated SC-type | confined to a larger PC-type |
